One assay has as its target EGFR del19/T790M/C797S (Homo sapiens, UniProt P00533, C797S/DEL746-750/T790M). Briefly: Biochemical EGFR kinase assay (Lance Ultra TR-FRET), triple mutant del19/T790M/C797S. A digest of the protocol: (§1)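 Step 1: compound in kinase buffer, 0.003–10 μM. Step 2: kinase reaction 1 h at room temperature. Step 4: TR-FRET read at 615/665 nm; IC50 calculated.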
On the technique in general: In TR-FRET formats the signal depends on donor and acceptor labels being close together.

Another assay deals with EGFR L858R/C797S (Homo sapiens, UniProt P00533, C797S/L858R). Briefly: Biochemical EGFR kinase assay (Lance Ultra TR-FRET), double mutant L858R/C797S. An outline of the steps:
as §1

A further assay deals with EGFR del19/C797S (Homo sapiens, UniProt P00533, C797S/DEL746-750). Briefly: Biochemical EGFR kinase assay (Lance Ultra TR-FRET), double mutant del19/C797S. A digest of the protocol:
as §1

For another assay, the target named is EGFR wildtype (Homo sapiens, UniProt P00533). Briefly: Biochemical EGFR kinase assay (Lance Ultra TR-FRET), wildtype. A digest of the protocol: as §1
Another assay has as its target EGFR L858R/T790M/C797S (Homo sapiens, UniProt P00533, C797S/L858R/T790M). Kind of assay: Biochemical EGFR kinase assay (Lance Ultra TR-FRET), triple mutant L858R/T790M/C797S. An outline of the steps: as §1
Where [1] appears, read: Km ATP, read-out: IC50 del19/T790M/C797S (nM) Km ATP.
Where [2] appears, read: Km ATP, read-out: IC50 L858R/C797S (nM) Km ATP.
The mark [3] stands for this setting: Km ATP, read-out: IC50 del19/C797S (nM) Km ATP.
The mark [4] stands for this setting: Km ATP, read-out: IC50 WT (nM) Km ATP.
Setting [5] is: Km ATP, read-out: IC50 L858R/T790M/C797S (nM) Km ATP.
Where [6] appears, read: ATP at Km, read-out: IC50 del19/T790M/C797S, Km ATP.
Setting [7] is: IC50 del19/T790M/C797S, 100 μM ATP.
Where [8] appears, read: ATP at Km, read-out: IC50 L858R/C797S, Km ATP.
The mark [9] stands for this setting: ATP at Km, read-out: IC50 del19/C797S, Km ATP.
Setting [10] is: ATP at Km, read-out: IC50 WT, Km ATP.
The mark [11] stands for this setting: ATP at Km, read-out: IC50 L858R/T790M/C797S, Km ATP.
Setting [12] is: IC50 L858R/T790M/C797S, 100 μM ATP.
The mark [13] stands for this setting: IC50 del19/T790M/C797S (nM) 100 μM ATP, 100 μM ATP.
The mark [14] stands for this setting: IC50 L858R/C797S (nM) 100 μM ATP, 100 μM ATP.
[15] abbreviates: IC50 del19/C797S (nM) 100 μM ATP, 100 μM ATP.
Setting [16] is: IC50 WT (nM) 100 μM ATP, 100 μM ATP.
Setting [17] is: IC50 L858R/T790M/C797S (nM) 100 μM ATP, 100 μM ATP.

Like-named read-outs stand apart in the source and are kept apart here. Some results are limits rather than exact numbers.

From patent US12258328B2, “6-membered heteroaryl-containing aminopyridine compounds as EGFR inhibitors” (YUHAN CORPORATION, priority 2021, dated 2025) come the findings set out here.

Chain of EGFR L858R/T790M/C797S (P00533 25-1210 T790M/C797S/L858R): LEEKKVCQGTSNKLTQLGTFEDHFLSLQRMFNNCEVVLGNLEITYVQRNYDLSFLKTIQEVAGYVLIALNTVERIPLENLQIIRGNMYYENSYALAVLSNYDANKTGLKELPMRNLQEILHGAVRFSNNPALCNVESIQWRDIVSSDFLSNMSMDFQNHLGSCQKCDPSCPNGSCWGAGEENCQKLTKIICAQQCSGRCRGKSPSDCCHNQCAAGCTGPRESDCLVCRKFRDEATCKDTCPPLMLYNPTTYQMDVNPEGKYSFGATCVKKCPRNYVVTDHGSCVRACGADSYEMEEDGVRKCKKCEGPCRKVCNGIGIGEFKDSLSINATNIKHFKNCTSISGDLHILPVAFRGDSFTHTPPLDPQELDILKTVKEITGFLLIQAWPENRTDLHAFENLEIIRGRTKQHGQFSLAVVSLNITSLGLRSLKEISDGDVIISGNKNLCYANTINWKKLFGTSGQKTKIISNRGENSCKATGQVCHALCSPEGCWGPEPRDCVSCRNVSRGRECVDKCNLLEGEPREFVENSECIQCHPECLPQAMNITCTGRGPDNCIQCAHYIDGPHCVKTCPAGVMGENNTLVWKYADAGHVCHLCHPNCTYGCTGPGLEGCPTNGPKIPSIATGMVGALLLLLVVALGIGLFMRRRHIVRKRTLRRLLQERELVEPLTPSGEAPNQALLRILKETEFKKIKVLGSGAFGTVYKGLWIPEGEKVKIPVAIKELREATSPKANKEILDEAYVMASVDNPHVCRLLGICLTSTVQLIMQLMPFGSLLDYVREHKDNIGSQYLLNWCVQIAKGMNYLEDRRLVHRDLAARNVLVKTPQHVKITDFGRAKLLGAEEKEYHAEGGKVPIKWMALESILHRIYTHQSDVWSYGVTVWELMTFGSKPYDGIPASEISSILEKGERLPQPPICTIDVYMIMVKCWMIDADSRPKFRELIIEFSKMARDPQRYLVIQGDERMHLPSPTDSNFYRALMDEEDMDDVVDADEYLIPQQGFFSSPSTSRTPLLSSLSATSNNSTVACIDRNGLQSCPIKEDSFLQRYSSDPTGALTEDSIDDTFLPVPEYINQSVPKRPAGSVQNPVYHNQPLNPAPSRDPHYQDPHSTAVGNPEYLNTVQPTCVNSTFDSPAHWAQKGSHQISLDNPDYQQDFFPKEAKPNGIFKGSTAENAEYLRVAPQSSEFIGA
Chain of EGFR del19/T790M/C797S (P00533 with tags, fused parts or gaps DEL746-750/T790M/C797S): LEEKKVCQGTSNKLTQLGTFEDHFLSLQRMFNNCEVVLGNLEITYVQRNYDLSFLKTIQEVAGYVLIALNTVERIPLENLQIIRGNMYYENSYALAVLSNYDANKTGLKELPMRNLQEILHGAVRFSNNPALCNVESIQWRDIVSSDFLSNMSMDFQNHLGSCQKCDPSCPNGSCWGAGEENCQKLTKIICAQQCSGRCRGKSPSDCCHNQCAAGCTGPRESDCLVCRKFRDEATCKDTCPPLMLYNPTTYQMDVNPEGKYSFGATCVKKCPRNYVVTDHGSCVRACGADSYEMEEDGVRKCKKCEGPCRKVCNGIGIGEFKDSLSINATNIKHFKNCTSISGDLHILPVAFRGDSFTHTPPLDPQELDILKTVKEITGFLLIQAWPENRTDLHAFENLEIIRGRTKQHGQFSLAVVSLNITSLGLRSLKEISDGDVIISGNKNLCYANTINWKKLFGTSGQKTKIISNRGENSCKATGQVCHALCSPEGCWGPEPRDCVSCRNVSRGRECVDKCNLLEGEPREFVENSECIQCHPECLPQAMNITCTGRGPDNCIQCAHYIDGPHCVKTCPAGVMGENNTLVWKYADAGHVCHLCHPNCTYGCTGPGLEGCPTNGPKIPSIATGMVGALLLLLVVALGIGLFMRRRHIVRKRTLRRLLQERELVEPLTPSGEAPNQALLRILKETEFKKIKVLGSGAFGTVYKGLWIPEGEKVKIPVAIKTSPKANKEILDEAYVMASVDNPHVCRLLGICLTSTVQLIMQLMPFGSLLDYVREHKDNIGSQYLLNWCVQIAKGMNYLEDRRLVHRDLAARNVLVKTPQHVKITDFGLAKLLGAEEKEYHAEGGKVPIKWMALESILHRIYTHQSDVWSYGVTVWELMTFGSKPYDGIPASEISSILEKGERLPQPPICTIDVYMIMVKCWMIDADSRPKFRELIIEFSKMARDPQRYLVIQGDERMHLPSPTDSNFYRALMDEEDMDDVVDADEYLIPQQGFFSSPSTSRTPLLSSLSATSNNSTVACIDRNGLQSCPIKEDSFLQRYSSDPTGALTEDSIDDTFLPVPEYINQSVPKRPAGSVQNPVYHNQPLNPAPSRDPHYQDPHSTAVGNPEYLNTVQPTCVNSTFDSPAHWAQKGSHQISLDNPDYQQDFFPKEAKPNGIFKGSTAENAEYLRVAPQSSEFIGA
Chain of EGFR del19/C797S (P00533 with tags, fused parts or gaps DEL746-750/C797S): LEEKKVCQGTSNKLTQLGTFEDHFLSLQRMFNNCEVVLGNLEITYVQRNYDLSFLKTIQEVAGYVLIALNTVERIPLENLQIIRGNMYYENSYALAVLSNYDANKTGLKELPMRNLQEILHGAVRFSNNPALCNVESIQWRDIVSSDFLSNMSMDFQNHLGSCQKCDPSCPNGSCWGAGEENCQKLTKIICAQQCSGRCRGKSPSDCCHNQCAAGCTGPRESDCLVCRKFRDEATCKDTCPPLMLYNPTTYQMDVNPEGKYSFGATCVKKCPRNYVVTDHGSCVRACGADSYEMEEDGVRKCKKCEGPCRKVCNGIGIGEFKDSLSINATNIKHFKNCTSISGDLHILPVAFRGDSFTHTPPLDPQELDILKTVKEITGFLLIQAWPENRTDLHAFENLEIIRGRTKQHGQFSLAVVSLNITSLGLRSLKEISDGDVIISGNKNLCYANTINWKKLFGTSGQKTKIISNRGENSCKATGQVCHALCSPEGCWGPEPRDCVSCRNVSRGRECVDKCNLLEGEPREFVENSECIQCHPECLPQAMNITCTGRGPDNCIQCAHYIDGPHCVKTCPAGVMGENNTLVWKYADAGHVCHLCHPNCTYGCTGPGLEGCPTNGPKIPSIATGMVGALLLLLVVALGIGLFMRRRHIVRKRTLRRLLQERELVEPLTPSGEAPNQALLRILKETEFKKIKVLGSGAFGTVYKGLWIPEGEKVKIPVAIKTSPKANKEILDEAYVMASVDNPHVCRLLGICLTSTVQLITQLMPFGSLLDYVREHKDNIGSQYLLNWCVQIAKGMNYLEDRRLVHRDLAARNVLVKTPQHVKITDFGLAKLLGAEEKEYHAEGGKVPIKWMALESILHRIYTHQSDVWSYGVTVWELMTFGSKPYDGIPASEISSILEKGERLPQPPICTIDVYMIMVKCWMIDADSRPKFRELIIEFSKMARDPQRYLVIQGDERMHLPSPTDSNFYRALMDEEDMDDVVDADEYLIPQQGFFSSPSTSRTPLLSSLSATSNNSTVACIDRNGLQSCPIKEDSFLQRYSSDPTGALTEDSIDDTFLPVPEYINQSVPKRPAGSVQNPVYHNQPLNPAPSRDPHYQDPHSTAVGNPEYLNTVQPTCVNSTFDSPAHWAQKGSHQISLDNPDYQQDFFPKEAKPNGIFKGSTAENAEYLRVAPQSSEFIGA
Chain of EGFR wildtype (P00533 25-1210): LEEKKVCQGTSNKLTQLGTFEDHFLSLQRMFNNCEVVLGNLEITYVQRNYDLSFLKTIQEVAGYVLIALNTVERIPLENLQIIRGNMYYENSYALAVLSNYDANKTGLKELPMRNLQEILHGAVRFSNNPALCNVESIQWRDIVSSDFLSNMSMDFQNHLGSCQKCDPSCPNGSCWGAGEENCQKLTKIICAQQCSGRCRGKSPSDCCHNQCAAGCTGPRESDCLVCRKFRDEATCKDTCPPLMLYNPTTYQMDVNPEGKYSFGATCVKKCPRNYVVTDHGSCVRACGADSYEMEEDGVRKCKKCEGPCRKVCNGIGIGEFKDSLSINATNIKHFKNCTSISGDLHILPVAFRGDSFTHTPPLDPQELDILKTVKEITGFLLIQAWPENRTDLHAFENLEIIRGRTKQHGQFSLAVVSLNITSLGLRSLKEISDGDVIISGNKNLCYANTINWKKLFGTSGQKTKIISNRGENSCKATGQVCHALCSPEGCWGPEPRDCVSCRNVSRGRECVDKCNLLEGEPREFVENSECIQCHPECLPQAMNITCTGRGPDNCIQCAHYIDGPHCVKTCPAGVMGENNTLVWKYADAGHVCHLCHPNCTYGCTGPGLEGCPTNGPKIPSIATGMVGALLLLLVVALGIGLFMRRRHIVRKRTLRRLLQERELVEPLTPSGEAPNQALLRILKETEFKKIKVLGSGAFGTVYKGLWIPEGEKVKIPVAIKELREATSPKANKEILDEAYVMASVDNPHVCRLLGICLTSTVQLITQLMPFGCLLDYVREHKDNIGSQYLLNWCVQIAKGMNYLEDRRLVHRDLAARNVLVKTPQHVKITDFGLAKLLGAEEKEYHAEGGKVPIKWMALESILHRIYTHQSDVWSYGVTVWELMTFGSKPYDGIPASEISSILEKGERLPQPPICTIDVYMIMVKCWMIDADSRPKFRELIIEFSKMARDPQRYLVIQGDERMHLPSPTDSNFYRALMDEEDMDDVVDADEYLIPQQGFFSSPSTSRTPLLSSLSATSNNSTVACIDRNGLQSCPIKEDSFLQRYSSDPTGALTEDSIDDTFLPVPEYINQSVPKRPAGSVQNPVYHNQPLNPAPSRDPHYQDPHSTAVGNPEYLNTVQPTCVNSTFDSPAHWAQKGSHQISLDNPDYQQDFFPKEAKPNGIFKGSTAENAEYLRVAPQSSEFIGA

As for `CC(C)Nc1cc(Nc2ccnc(-c3cnn(S(=O)(=O)C4CC4)c3)n2)ncc1-c1cnc(OCCN(C)C)cn1` [Example 122, N^2-(2-(1-(Cyclopropylsulfonyl)-1H-pyrazol-4-yl)pyrimidin-4-yl)-5-(5-(2-(dimethylamino)ethoxy)pyrazin-2-yl)-N^4-isopropylpyridine-2,4-diamine], the IC50 on EGFR del19/T790M/C797S (setting [1]) turned out to be 0.3 nM; at EGFR L858R/C797S (setting [2]) it was 4.3 nM; at EGFR del19/C797S (setting [3]) it was 9.7 nM; on EGFR wildtype (setting [4]), 7.4 nM; at EGFR L858R/T790M/C797S (setting [5]), 0.1 nM.

Turning to `COc1c(F)ccnc1-c1cnc(Nc2ccnc(-c3cnn(CC(F)F)c3)n2)cc1N[C@H]1CC[C@@](C)(O)CC1` [Example 336, (1s,4s)-4-((6′-((2-(1-(2,2-Difluoroethyl)-1H-pyrazol-4-yl)pyrimidin-4-yl)amino)-4-fluoro-3-methoxy-[2,3′-bipyridin]-4′-yl)amino)-1-methylcyclohexan-1-ol], the IC50 on EGFR del19/T790M/C797S (setting [1]) is 345 nM; on EGFR L858R/C797S (setting [2]), 1670 nM; at EGFR del19/C797S (setting [3]), 3820 nM; at EGFR wildtype (setting [4]), 235 nM; on EGFR L858R/T790M/C797S (setting [5]) it was 43.9 nM.

Take `O=C(c1ccc(-c2cnc(Nc3ccnc(-c4cnn(S(=O)(=O)C5CC5)c4)n3)cc2N[C@H]2CC[C@@H](CO)CC2)nc1)N1CCOCC1` [Example 200, (6′-((2-(1-(Cyclopropylsulfonyl)-1H-pyrazol-4-yl)pyrimidin-4-yl)amino)-4′-(((1s,4s)-4-(hydroxymethyl)cyclohexyl)amino)-[2,3′-bipyridin]-5-yl)(morpholino)methanone]: the IC50 on EGFR del19/T790M/C797S (setting [6]) was 0.1 nM; against EGFR del19/T790M/C797S (setting [7]) it was 0.2 nM; at EGFR L858R/C797S (setting [8]) it was 0.2 nM; at EGFR L858R/C797S (IC50 L858R/C797S, 100 μM ATP), 0.6 nM; on EGFR del19/C797S (setting [9]), 0.3 nM; at EGFR del19/C797S (IC50 del19/C797S, 100 μM ATP), 0.3 nM. Moreover, the IC50 on EGFR wildtype (setting [10]) turned out to be 0.6 nM; on EGFR wildtype (IC50 WT, 100 μM ATP), 134 nM; on EGFR L858R/T790M/C797S (setting [11]) it was 0.1 nM; against EGFR L858R/T790M/C797S (setting [12]), 0.2 nM.

Consider `CC(C)(O)[C@H]1CC[C@@H](Nc2nccc(-c3cnc(Nc4ccnc(-c5cnn(S(=O)(=O)C6CC6)c5)n4)cc3N[C@H]3CC[C@@H](C(C)(C)O)CC3)n2)CC1` [Example 193, 2-((1s,4s)-4-((4-(6-((2-(1-(Cyclopropylsulfonyl)-1H-pyrazol-4-yl)pyrimidin-4-yl)amino)-4-(((1s,4s)-4-(2-hydroxypropan-2-yl)cyclohexyl)amino)pyridin-3-yl)pyrimidin-2-yl)amino)cyclohexyl)propan-2-ol], for which the IC50 against EGFR del19/T790M/C797S (setting [7]) is 3 nM; against EGFR L858R/C797S (IC50 L858R/C797S, 100 μM ATP), 187 nM; against EGFR del19/C797S (IC50 del19/C797S, 100 μM ATP) it was 23.5 nM; at EGFR wildtype (IC50 WT, 100 μM ATP), above 10000 nM; at EGFR L858R/T790M/C797S (setting [12]) it was 3.8 nM.

With `CN(C)C[C@H]1CC[C@@H](Nc2cc(Nc3ccnc(-c4cnn(S(=O)(=O)C5CC5)c4)n3)ncc2-c2ccc(N3CCC(F)(F)CC3)nn2)CC1` [Example 73, N^2-(2-(1-(Cyclopropylsulfonyl)-1H-pyrazol-4-yl)pyrimidin-4-yl)-5-(6-(4,4-difluoropiperidin-1-yl)pyridazin-3-yl)-N^4-((1s,4s)-4-((dimethylamino)methyl)cyclohexyl)pyridine-2,4-diamine], the IC50 came out at 0.7 nM against EGFR del19/T790M/C797S (setting [13]); 0.4 nM at EGFR del19/T790M/C797S (setting [1]); 16.3 nM on EGFR L858R/C797S (setting [14]); 0.5 nM against EGFR del19/C797S (setting [15]); 0.4 nM on EGFR del19/C797S (setting [3]); 562 nM against EGFR wildtype (setting [16]). The results for the IC50 on EGFR wildtype (setting [4]), against EGFR L858R/T790M/C797S (setting [17]) and on EGFR L858R/T790M/C797S (setting [5]) were 2.2 nM, 0.5 nM and 0.2 nM, respectively.

Take `O=S(=O)(C1CC1)n1cc(-c2nccc(Nc3cc(N[C@H]4CC[C@@H](CO)CC4)c(-c4ccc(N5CCC(F)(F)CC5)nn4)cn3)n2)cn1` [Example 69, ((1s,4s)-4-((2-((2-(1-(Cyclopropylsulfonyl)-1H-pyrazol-4-yl)pyrimidin-4-yl)amino)-5-(6-(4,4-difluoropiperidin-1-yl)pyridazin-3-yl)pyridin-4-yl)amino)cyclohexyl)methanol]: the IC50 on EGFR del19/T790M/C797S (setting [13]) worked out at 1.6 nM; at EGFR del19/T790M/C797S (setting [1]), 1.9 nM; on EGFR L858R/C797S (setting [14]) it was 52.7 nM; on EGFR L858R/C797S (setting [2]) it was 1.4 nM; on EGFR del19/C797S (setting [15]), 5.3 nM; at EGFR del19/C797S (setting [3]) it was 2.4 nM. Also, the IC50 against EGFR wildtype (setting [16]) came to 4780 nM; on EGFR wildtype (setting [4]), 14.5 nM; against EGFR L858R/T790M/C797S (setting [17]), 1.4 nM; at EGFR L858R/T790M/C797S (setting [5]), 0.8 nM.

`CC(C)(O)c1cnc(-c2cnc(Nc3ccnc(-c4cnn(S(=O)(=O)C5CC5)c4)n3)cc2N[C@H]2CC[C@@H](CO)CC2)cn1` [Example 119, 2-(5-(6-((2-(1-(Cyclopropylsulfonyl)-1H-pyrazol-4-yl)pyrimidin-4-yl)amino)-4-(((1s,4s)-4-(hydroxymethyl)cyclohexyl)amino)pyridin-3-yl)pyrazin-2-yl)propan-2-ol]: the IC50 against EGFR del19/T790M/C797S (setting [13]) stood at 0.1 nM; on EGFR del19/T790M/C797S (setting [1]), 0.1 nM; against EGFR L858R/C797S (setting [14]), 0.3 nM; on EGFR L858R/C797S (setting [2]), 0.03 nM; on EGFR del19/C797S (setting [15]) it was 0.2 nM; at EGFR del19/C797S (setting [3]), 0.1 nM. Further, the IC50 at EGFR wildtype (setting [16]) was 108 nM; at EGFR wildtype (setting [4]), 1 nM; against EGFR L858R/T790M/C797S (setting [17]), 0.2 nM; on EGFR L858R/T790M/C797S (setting [5]) it was 0.1 nM.

Consider `CC(C)(O)C1CCC(Nc2cc(Nc3ccnc(-c4cnn(S(=O)(=O)C5CC5)c4)n3)ncc2-c2ccc(C(C)(O)C(F)(F)F)cn2)CC1` (centres unmarked) [Example 233, 2-(6′-((2-(1-(Cyclopropylsulfonyl)-1H-pyrazol-4-yl)pyrimidin-4-yl)amino)-4′-(((1s,4s)-4-(2-hydroxypropan-2-yl)cyclohexyl)amino)-[2,3′-bipyridin]-5-yl)-1,1,1-trifluoropropan-2-ol], for which the IC50 at EGFR del19/T790M/C797S (setting [6]) is 4.7 nM; on EGFR del19/T790M/C797S (setting [7]) it was 6.3 nM; on EGFR L858R/C797S (setting [8]) it was 4.7 nM; at EGFR L858R/C797S (IC50 L858R/C797S, 100 μM ATP) it was 36 nM; on EGFR del19/C797S (setting [9]), 7.1 nM; on EGFR del19/C797S (IC50 del19/C797S, 100 μM ATP), 19.2 nM. Further, the IC50 on EGFR wildtype (setting [10]) came to 18.3 nM; on EGFR wildtype (IC50 WT, 100 μM ATP), 6750 nM; on EGFR L858R/T790M/C797S (setting [11]), 0.9 nM; on EGFR L858R/T790M/C797S (setting [12]) it was 2.7 nM.

`CN1CCC(Oc2ccc(-c3cnc(Nc4ccnc(-c5cnn(CC(F)F)c5)n4)cc3NC3CC(F)(F)C3)nc2)CC1` [Example 139, N^4′-(3,3-Difluorocyclobutyl)-N^6′-(2-(1-(2,2-difluoroethyl)-1H-pyrazol-4-yl)pyrimidin-4-yl)-5-((1-methylpiperidin-4-yl)oxy)-[2,3′-bipyridine]-4′,6′-diamine]: the IC50 was 0.3 nM at EGFR del19/T790M/C797S (setting [1]); 5 nM on EGFR L858R/C797S (setting [2]); 19.4 nM on EGFR del19/C797S (setting [3]); 208 nM on EGFR wildtype (setting [4]); 0.3 nM on EGFR L858R/T790M/C797S (setting [5]).

On to `CC(C)(O)[C@H]1CC[C@@H](Nc2cc(Nc3ccnc(-c4cnn(S(=O)(=O)C5CC5)c4)n3)ncc2-c2ccc(N3CCOCC3)cn2)CC1` [Example 45, 2-((1s,4s)-4-((6′-((2-(1-(Cyclopropylsulfonyl)-1H-pyrazol-4-yl)pyrimidin-4-yl)amino)-5-morpholino-[2,3′-bipyridin]-4′-yl)amino)cyclohexyl)propan-2-ol], for which the IC50 at EGFR del19/T790M/C797S (setting [13]) came out at 1.7 nM; against EGFR L858R/C797S (setting [14]) it was 4.2 nM; on EGFR del19/C797S (setting [15]) it was 1.7 nM; on EGFR wildtype (setting [16]) it was 602 nM; against EGFR L858R/T790M/C797S (setting [17]) it was 2.6 nM.
